In article PMC5943947 (Molecules : A Journal of Synthetic Chemistry and Natural …, 2017):

What was measured:
[1] = Body weight in B16 melanoma xenograft model; assay type: in vivo; details: B16 tumor-bearing C57BL/6J mice
Experimental: (§1) Male C57BL/6J mice were employed to establish the xenograft tumor model by subcutaneous injection (S.C.) of 6 × 10^6 B16 cells. […] In the end of treatment, the mice were sacrificed and the tumor were peeled off and weighted. The inhibition rate of tumor growth was calculated. All animal protocols were conformed to the Guidelines for the Care and Use of Laboratory Animals approved by the Animal Care and Use Committee of Yantai University.

EGFR = EGFR (Homo sapiens, UniProt P00533); test: EGFR inhibitory assay (caliper mobility shift assay)
Chain of EGFR (P00533 25-1210): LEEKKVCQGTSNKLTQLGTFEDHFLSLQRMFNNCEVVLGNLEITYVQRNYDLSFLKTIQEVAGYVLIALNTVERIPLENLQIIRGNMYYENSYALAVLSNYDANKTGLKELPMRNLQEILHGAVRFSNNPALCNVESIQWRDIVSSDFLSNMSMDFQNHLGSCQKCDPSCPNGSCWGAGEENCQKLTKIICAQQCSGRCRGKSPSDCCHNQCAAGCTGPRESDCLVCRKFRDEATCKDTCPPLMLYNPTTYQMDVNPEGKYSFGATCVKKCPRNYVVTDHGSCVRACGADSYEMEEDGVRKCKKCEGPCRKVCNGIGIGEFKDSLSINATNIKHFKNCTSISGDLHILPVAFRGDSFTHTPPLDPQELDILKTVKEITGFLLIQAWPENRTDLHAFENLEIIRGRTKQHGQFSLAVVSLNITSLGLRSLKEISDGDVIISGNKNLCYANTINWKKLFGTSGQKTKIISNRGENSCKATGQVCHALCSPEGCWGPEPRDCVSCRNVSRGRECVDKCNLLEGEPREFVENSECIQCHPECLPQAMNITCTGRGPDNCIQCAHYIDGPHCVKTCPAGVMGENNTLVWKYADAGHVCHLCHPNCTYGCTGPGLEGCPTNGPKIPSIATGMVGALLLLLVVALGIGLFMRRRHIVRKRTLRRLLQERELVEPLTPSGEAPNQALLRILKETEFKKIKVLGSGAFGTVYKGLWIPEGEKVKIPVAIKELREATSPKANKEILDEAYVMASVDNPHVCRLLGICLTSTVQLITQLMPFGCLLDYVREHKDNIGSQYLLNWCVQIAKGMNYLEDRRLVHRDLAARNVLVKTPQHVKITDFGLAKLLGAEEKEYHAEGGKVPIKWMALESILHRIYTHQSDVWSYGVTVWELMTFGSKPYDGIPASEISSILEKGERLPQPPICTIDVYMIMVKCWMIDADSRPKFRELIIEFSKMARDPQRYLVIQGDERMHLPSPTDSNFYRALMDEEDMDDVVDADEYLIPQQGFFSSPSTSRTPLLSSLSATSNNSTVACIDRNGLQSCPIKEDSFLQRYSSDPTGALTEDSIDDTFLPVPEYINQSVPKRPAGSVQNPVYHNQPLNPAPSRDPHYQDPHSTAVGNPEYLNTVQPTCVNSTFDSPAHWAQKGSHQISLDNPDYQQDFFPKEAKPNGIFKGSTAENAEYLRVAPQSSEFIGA
Experimental: (§3) Each of these compounds was dissolved in DMSO at 10 mM, diluted to 50× of the final desired highest inhibitor concentration in reaction by 100% DMSO, and 100 μL of each dilution was added to one well on 96-well storage plate, and diluted by transferring 10 μL to 90 μL of 100% DMSO in the next well. Besides, 100 μL of 100% DMSO was added to two empty wells for no compound control and no enzyme control in the same 96-well plate respectively. The plate was marked as source plate. 10 μL of each compound was transferred from the source plate to a new 96-well plate, which was marked as the intermediate plate. Next, 90 μL of 1× kinase base buffer was added to each well of the intermediate plate, and mixed by shaking vigorously for 10 min. A total of 5 μL of each well from the 96-well intermediate plate was transferred to a 384-well plate in duplicate.
(§4) Kinase reaction: kinase in 1× kinase base buffer, FAM-labeled peptide and ATP in the 1× kinase base buffer were added, then 10 μL of 2.5× enzyme solution was added to each well of the 384-well assay plate. After incubating at room temperature for 10 min, 10 μL of 2.5× peptide solution was added to each well of the 384-well assay plate. […] Finally, the kinase reactions were quenched with 25 μL of EDTA and the plates were washed. The dates were collected and converted with the caliper program.

B16 melanoma xenograft = test: In vivo antitumor activity, B16 melanoma xenograft model; details: 90 mg/kg for 14 days (text: orally; table footnote: i.p.), C57BL/6J mice
Experimental: as §1

VEGFR-2 = VEGFR-2 (Homo sapiens, UniProt P35968); test: VEGFR-2 inhibitory assay (caliper mobility shift assay)
Chain of VEGFR-2 (P35968 20-1356): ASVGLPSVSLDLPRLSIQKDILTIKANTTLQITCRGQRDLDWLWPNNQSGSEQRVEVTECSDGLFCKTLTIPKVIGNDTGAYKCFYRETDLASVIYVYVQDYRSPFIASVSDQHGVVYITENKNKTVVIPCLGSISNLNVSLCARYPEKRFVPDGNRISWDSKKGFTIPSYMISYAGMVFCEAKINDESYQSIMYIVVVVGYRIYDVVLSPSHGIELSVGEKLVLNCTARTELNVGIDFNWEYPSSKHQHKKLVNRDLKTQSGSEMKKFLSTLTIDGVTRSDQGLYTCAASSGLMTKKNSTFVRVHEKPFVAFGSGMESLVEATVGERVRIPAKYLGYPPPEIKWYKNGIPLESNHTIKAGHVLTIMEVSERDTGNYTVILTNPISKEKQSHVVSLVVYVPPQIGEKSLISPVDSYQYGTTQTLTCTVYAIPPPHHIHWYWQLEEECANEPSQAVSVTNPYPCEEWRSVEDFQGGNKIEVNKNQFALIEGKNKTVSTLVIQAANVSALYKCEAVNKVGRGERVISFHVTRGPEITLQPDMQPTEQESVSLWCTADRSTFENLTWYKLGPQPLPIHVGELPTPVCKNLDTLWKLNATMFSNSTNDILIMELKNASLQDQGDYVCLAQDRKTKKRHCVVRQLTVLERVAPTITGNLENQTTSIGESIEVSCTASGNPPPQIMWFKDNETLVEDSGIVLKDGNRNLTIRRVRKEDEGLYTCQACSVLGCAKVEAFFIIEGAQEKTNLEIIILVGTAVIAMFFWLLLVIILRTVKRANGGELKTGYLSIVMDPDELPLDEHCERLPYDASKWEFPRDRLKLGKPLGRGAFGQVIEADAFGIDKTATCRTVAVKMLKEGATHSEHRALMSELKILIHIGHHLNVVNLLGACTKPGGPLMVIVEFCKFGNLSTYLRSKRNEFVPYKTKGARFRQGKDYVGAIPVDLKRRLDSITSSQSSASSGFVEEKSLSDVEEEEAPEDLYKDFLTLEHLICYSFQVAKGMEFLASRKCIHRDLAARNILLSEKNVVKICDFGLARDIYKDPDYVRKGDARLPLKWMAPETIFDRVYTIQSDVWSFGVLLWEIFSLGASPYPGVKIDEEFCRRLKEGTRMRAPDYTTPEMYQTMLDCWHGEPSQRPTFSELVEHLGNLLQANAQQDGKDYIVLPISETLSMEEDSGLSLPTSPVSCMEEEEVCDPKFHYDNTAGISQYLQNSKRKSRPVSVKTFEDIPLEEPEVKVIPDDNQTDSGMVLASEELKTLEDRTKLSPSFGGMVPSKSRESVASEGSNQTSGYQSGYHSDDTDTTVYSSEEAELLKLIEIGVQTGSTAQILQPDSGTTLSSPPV
Experimental: as §3, §4

B16 cell line = test: In vitro antiproliferative activity, MTT assay, B16; assay type: cell-based; details: Mus musculus, 48 h
Experimental: (§2) HCT116, MCF-7 and B16 cell lines were plated on 96-well plates at a density of 5000 per well and incubated overnight. […] After 48 h, 0.5% MTT (Amresco, Solon, OH, USA) solution was added to each well, and further incubation for 4 h, then cells were centrifuged at 2500 rpm for 15 min and removed from the culture medium. And add 150 μL DMSO to dissolve the formazan. After mixing for 5 min, optical density was detected at 570 nm on a microplate reader (Thermo, Waltham, MA, USA).

MCF-7 cell line = test: In vitro antiproliferative activity, MTT assay, MCF-7; assay type: cell-based; details: Homo sapiens, MCF7, 48 h
Experimental: as §2

HCT116 cell line = test: In vitro antiproliferative activity, MTT assay, HCT116; assay type: cell-based; details: Homo sapiens, HCT-116, 48 h
Experimental: as §2

With `COc1cc2ncnc(Sc3cccc(NC(=S)Nc4ccc(Br)c(C(F)(F)F)c4)c3)c2cc1OC` [Compound 10q, 1-(4-Bromo-3-trifluoromethylphenyl)-3-[3-(6,7-dimethoxyquinazolin-4-ylsulfanyl)phenyl] thiourea] the “Body Weight End” value ([1]; 90 mg/kg for 14 days, end of treatment) was 20.2 ± 2.7 g, the “Body Weight Initial” value ([1]; 90 mg/kg, before treatment) was 19.1 ± 2.7 g and the IC50 (EGFR) was 0.01 µM. For the same compound, the “Inhibition Rate of tumor growth” value (B16 melanoma xenograft) was 64.06%, the “Tumor Weight” value (B16 melanoma xenograft) was 0.46 ± 0.14 g and the IC50 (VEGFR-2) was 0.08 µM. The IC50 (B16 cell line) was 5.57 µM, the IC50 (MCF-7 cell line) was 15.7 µM and the melting point was 150.3 to 152 °C. For the same compound, the IC50 (HCT116 cell line) was 8.35 µM.
